This note sets out measurements from US20210113540A1, “TREATMENT AGENT AND PHARMACEUTICAL COMPOSITION FOR GLIOMA” (NATIONAL UNIVERSITY CORPORATION HOKKAIDO UNIVERSITY, priority 2018, published 2021).

Like-named read-outs stand apart in the source and are kept apart here.

Assay [1] deals with Glioma-initiating cell E6R. The assay is described as follows: Cell growth test (MTT) on GICR strain E6R. The format is cell-based. The conditions noted are these: Homo sapiens, 72 h, MTT after 3 days. As to the method:
GICR strain: Cell growth test was performed using E6R (Stem Cells. 2016 August; 34(8):2016-25.).
(§1) Cell culture solutions were obtained by mixing a medium prepared by adding various compounds, bFGF (Peprotech, 100-18B) and EGF (Peprotech, 100-15) to DMEM/Ham's F-12 medium (SIGMA, D8062) and a medium prepared by adding FCS (Hyclone, SH30910.03) to DMEM medium (Nacalai tesque, 08458-45) to a concentration of 10% for use.
(§2) Each compound adjusted to a predetermined concentration was dispensed into a 96-well plate (Falcon, 353072) at 80 μL/well, and E6 cells and E6R cells were seeded on the 96-well plate at 1000 cells/80 μL/well. After 3 days, 10 μL of an MTT reagent (DOJINDO, 341-01823) was added, the cells were incubated at 37° C. for 3 hours, the culture solution was removed, and 100 μL of DMSO was added. The absorbance at 570 nm was measured using Bio-Rad iMark (Bio-Rad, 168-1130JA). The growth inhibition rate at each test compound concentration was calculated by the following formula using the absorbance as an index of the viable cell count.
(§3) The growth inhibition rate at each compound concentration was determined, and the 50% growth inhibition concentration GI50 (μmol/L)] was calculated using XLfit. Growth inhibition rate (%)=(Amount of luminescence from wells supplemented with test compound)/(Amount of luminescence from wells supplemented with DMSO)×100
(§4) GIC and GICR strain: Cell growth test was performed using E6, E6R, E16, and E16R (Stem Cells. 2016 August; 34(8): 2016-25.).

The test system of assay [2] is Glioma-initiating cell E6. The assay is described as follows: Cell proliferation test (MTT) on GIC strain E6. The format is cell-based. Conditions: Homo sapiens, 72 h, MTT after 3 days. As to the method:
as §4, §1, §2, §3

The subject of assay [3] is Glioma-initiating cell E16. The assay is described as follows: Cell proliferation test (MTT) on GIC strain E16. The format is cell-based. The conditions noted are these: Homo sapiens, 72 h, MTT after 3 days. The method, then:
as §4, §1, §2, §3

Assay [4] relates to Glioma-initiating cell E16R. The assay is described as follows: Cell proliferation test (MTT) on GICR strain E16R. The format is cell-based. The conditions noted are these: Homo sapiens, 72 h, MTT after 3 days. As to the method: as §4, §1, §2, §3
In a further assay the target is T1, recombinant human DHODH (Homo sapiens, UniProt Q02127).
T1 construct: DHODH, 31-395aa, Human, His tag, E. coli, ATGP1615; His tag; purchased ATGen ATGP1615; host or cells: E. coli
The assay is described as follows: DHODH enzyme assay (DCIP quenching). The format is biochemical. Conditions: pH 8.0, DCIP absorbance 600 nm, 50 minutes; read-out: DHODH enzyme inhibition IC50. As to the method: For DHODH enzyme assay, “Benjamin Bader, Wolfgang Knecht, Markus Fries, and Monika Löffler. Expression, Purification, and Characterization of Histidine-Tagged Rat and Human Flavoenzyme Dihydroorotate Dehydrogenase. Protein Expression and Purification, 1998, 13, 414-422” was referred to.
DHODH activity was evaluated using an enzyme assay system that couples with an assay in a blue-coloring dye 2,6-dichlorophenol indophenol (DCIP, MP BIOMEDICALS, MP150118) quenching assay. Purified recombinant human DHODH (DHODH, 31-395aa, Human, His tag, E. coli, ATGP1615) was purchased from ATGen. […] Enzyme activity was assessed by measuring the decrease in DCIP absorbance (600 nm) for 50 minutes using an Envision plate-reading spectrophotometer (PerkinElmer Co., Ltd.). […]
Enzyme reaction inhibition rate (%)=(Amount of luminescence from wells supplemented with test compound)/(Amount of luminescence from wells supplemented with DMSO)×100

Another assay deals with SOX2 in GICs (E6). The assay is described as follows: SOX2 immunostaining, SOX2/DAPI positive rate in GICs (E6). The format is cell-based, human. The conditions noted are these: 20 μmol/L OSMI-1, cultured 2 days; control 71±2%. As to the method: (§5) The extranuclear elimination of compound 8-dependent SOX2 is dependent on the extranuclear transport factor, Exportin (also known as CRM1). The cells were cultured for one day in the presence of Compound 8 (10 μM) and a CRM1-specific inhibitor leptomycin B (LMB, 150 nM), and GICs were immunostained with the SOX2 antibody. As a result, the SOX2/DAPI positive rate in GICs (E6) was as follows: Control: 95±2%, supplemented with Compound 8: 7±3%, supplemented with Compound 8+LMB: 87±9%; the SOX2/DAPI positive rate in GICs (E16) was as follows: Control: 72±11%, supplemented with compound 8: 0.5±1%, supplemented with Compound 8+LMB: 81±10%. The addition of LMB suppressed Compound 8-dependent extranuclear elimination of SOX2.
(§6) When UDP-GlcNAc was added after the chemical was added to GIC, reduced SOX2 expression in GICs and the cytotoxic activity of Compound 8 on GICs were neutralized (FIGS. 3 and 4). SOX2 K75A in which lysine 75 involved in the binding of CRM1 and SOX2 was substituted with alanine and SOX2 S248A in which the 0-GlcNAcylation target serine 248 was substituted with alanine were prepared, thereby establishing GICs that constitutively express these SOX2 mutants and wild-type SOX2 (SOX2 wt). After treatment with Compound 8, the localization of SOX2 was examined by immunostaining using an anti-FLAG antibody, and the viability of GICs expressing these mutants was examined by MTT assay (FIG. 5). In the presence of Compound 8, SOX2 K75A was present in the nucleus and partially neutralized the cytotoxic activity of Compound 8. SOX2 S248A was not retained in the nucleus by treatment with Compound 8, and no inhibitory effect on cytotoxic activity was observed. […] The SOX2/DAPI positive rate was as follows: GIC (E6): Control: 0%, SOX2 wt: 36±5%, SOX2 K75A: 63±5%, SOX2 S248A: 18±2%; GIC (E16): Control: 0%, SOX2 wt: 22±4%, SOX2 K75A: 58±6%, SOX2 S248A: 15±3%. Error bar: ±SD. Statistical processing is t-test. *P<0.05, **P<0.01, ***P<0.001. GIC was cultured for 2 days with Compound 8 (10 μmol/L) alone or together with UDP-GlcNAc (1 mmol/L), and immunostaining was performed for SOX2 and NESTIN. As a result, the addition of UDP-GlcNAc suppressed Compound 8-dependent extranuclear elimination of SOX2.
(§7) OSMI-1, which is an O-GlcNAc transferase (OGT)-specific inhibitor, suppresses GIC growth and SOX2 expression. (A) GICs were cultured for 3 days in the presence of various concentrations of OSMI-1, and cell growth was examined using MTT assay (FIG. 6). (B) The results of immunostaining for SOX2 and NESTIN using GICs cultured for 2 days in the presence of 20 μmol/L OSMI-1 and calculating the SOX2 positive rate (SOX2/DAPI) are shown below.

In another assay the test system is SOX2 in GICs (E16). The assay is described as follows: SOX2 immunostaining, SOX2/DAPI positive rate in GICs (E16). The format is cell-based, human. Conditions: 20 μmol/L OSMI-1, cultured 2 days; control 65±5%. The method, then: as §5, §6, §7
A further assay relates to GICs. The assay is described as follows: GIC growth in the presence of OSMI-1 (MTT assay). The format is cell-based, human. Conditions: cultured 3 days, various concentrations of OSMI-1, FIG. 6. The method, then:
as §7

By IC50 is commonly meant the concentration that inhibits the measured activity by half.

T1 sequence (Q02127 31-395): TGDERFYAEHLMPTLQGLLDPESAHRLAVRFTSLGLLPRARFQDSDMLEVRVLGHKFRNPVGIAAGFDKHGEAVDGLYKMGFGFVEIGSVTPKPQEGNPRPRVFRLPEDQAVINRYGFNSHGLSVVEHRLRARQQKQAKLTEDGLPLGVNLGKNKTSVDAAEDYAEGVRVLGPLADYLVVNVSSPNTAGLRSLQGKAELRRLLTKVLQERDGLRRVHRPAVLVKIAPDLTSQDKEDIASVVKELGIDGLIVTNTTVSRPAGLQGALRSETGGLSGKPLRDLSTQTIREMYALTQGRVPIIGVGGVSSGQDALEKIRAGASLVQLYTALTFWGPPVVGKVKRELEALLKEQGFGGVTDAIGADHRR

For `O=C(O)c1cc(C2CC2)cnc1Nc1ccc2c(ccn2Cc2cccc(F)c2)c1` [Compound 21, 5-cyclopropyl-2-((1-(3-fluorobenzyl)-1H-indole-5-yl)amino)nicotinic acid], the GI50 in assay [1] (read-out: GI50 (nmol/L) of Glioma-initiating cell E6R) was 655 nmol/L; in assay [1] (read-out: GI50 class of Glioma-initiating cell E6R), less than 1000 nmol/L; in assay [2] (read-out: GI50 (nmol/L) of Glioma-initiating cell E6) it was 100 nmol/L; in assay [2] (read-out: GI50 class of Glioma-initiating cell E6), less than 1000 nmol/L; in assay [3] (read-out: GI50 (nmol/L) of Glioma-initiating cell E16), 11800 nmol/L; in assay [3] (read-out: GI50 class of Glioma-initiating cell E16), not below 10000 nmol/L. The GI50 in assay [4] (read-out: GI50 (nmol/L) of Glioma-initiating cell E16R) was 1960 nmol/L; in assay [4] (read-out: GI50 class of Glioma-initiating cell E16R), 1000 to 10000 nmol/L. Also, the IC50 at recombinant human DHODH is 28.6 nM.

Consider `COc1ccccc1[C@@H](NS(=O)(=O)c1ccc2[nH]c(=O)ccc2c1)C(=O)N(Cc1ccco1)Cc1cccs1` [OSMI-1, reference compound], for which, in the assay with SOX2 in GICs (E6), the “SOX2 positive rate (SOX2/DAPI), GIC (E6)” value came to 32±4%. For the same molecule, the “SOX2 positive rate (SOX2/DAPI), GIC (E16)” value in the assay with SOX2 in GICs (E16) is on record as 30±5%. Besides, in the assay with GICs, the GIC growth entry is “suppresses”.
